Assay results published in ChEMBL document CHEMBL6127124, “Structure-Activity Relationships and Discovery of (S)-5-(tert-Butyl)-11-(difluoromethoxy)-9-methoxy-2-oxo-1,2,5,6-tetrahydropyrido[2',1':2,3]imidazo[4,5-h]quinoline-3-carboxylic Acid (AB-161), a Novel Orally Available and Liver-Centric HBV RNA Destabilizer” (J Med Chem, 2024).
Values after ≈ are worked out from the molar mass of the structure shown.

Assays:
[1] = Ratio of drug concentration in lung to plasma of Beagle dog at 10 mg/kg, po measured for 12 hrs by LC-MS/MS analysis; type: ADME, organism-based, Canis lupus familiaris; conditions: lung (relative to plasma)
[2] = Drug concentration in Beagle dog lung at 10 mg/kg, po measured for 12 hrs by LC-MS/MS analysis; type: ADME, organism-based, Canis lupus familiaris; conditions: read-out: Ct
[3] = Metabolic stability in CD-1 mouse liver microsomes assessed as clearance at 0.3 uM preincubated for 5 mins followed by NADPH addition measured upto 60 mins by LC-MS/MS analysis; type: ADME, Microsome; conditions: time < 65 min, read-out: CLH
[4] = Drug concentration in CD-1 mouse plasma at 10 mg/kg, po measured for 24 hrs by LC-MS/MS analysis; type: ADME, organism-based; conditions: read-out: Ct
[5] = Plasma protein binding in rat assessed as unbound fraction at 2 uM incubated for 6 hrs by equilibrium dialysis; type: ADME, cell-free
[6] = Drug concentration in Beagle dog liver at 10 mg/kg, po measured for 12 hrs by LC-MS/MS analysis; type: ADME, organism-based, Canis lupus familiaris; conditions: read-out: Ct
[7] = Drug concentration in Beagle dog kidney at 10 mg/kg, po measured for 12 hrs by LC-MS/MS analysis; type: ADME, organism-based, Canis lupus familiaris; conditions: read-out: Ct
[8] = tested on: Hepatitis B virus; assay: Antiviral activity against HBV genotype D in immuno-competent C57BL/6 mouse model of chronic HBV assessed as log10 reduction in serum HBsAg production at 10 mg/kg, po qd for 14 days measured 24 hrs post-last dose by EIA relative to control; type: functional; conditions: time 15 day
[9] = Plasma protein binding in dog assessed as unbound fraction at 2 uM incubated for 6 hrs by equilibrium dialysis; type: ADME, cell-free, Canis lupus familiaris
[10] = tested on: Hepatitis B virus; assay: Antiviral activity against HBV infected in human HepG2.2.15 cells assessed as reduction in HBsAg level incubated for 6 days with media and compound replenishment on third day by CLIA; type: functional, organism-based; conditions: HepG2.2.15, 144 h; for EC90: time 6 day
[11] = Metabolic stability in cynomolgous monkey liver microsomes assessed as clearance at 0.3 uM preincubated for 5 mins followed by NADPH addition measured upto 60 mins by LC-MS/MS analysis; type: ADME, Macaca fascicularis, Microsome; conditions: cynomolgus monkey, read-out: CLH
[12] = Kinetic solubility of compound in aqueous buffer at pH 4 at 200 uM incubated for 24 hrs by UPLC UV analysis; type: physicochemical; conditions: read-out: Kinetic_solubility
[13] = tested on: Hepatitis B virus; assay: Antiviral activity against HBV infected in human HepG2.2.15 cells assessed as reduction in HBsAg level incubated for 6 days with media and compound replenishment on third day in presence of 40 percent mouse serum by CLIA; type: functional, organism-based; conditions: HepG2.2.15, 144 h
[14] = Plasma protein binding in monkey assessed as unbound fraction at 2 uM incubated for 6 hrs by equilibrium dialysis; type: ADME, cell-free, Macaca mulatta; conditions: rhesus monkey
[15] = Kinetic solubility of compound in aqueous buffer at pH 7.4 at 200 uM incubated for 24 hrs by UPLC UV analysis; type: physicochemical; conditions: read-out: Kinetic_solubility
[16] = Cytotoxicity in human HepG2.2.15 cells by Cell Titer-Glo assay; type: toxicity, cell-based, HepG2 2.2.15
[17] = Metabolic stability in human liver microsomes assessed as clearance at 0.3 uM preincubated for 5 mins followed by NADPH addition measured upto 60 mins by LC-MS/MS analysis; type: ADME, Microsome; conditions: time < 65 min, read-out: CLH
[18] = AUC (0 to 24 hrs) in CD-1 mouse at 10 mg/kg, po measured for 24 hrs by LC-MS/MS analysis; type: ADME, organism-based; conditions: in vivo
[19] = Metabolic stability in Sprague-Dawley rat liver microsomes assessed as clearance at 0.3 uM preincubated for 5 mins followed by NADPH addition measured upto 60 mins by LC-MS/MS analysis; type: ADME, Microsome; conditions: time < 65 min, read-out: CLH
[20] = Selectivity ratio of drug concentration in liver in CD-1 mouse at 10 mg/kg, po measured for 24 hrs to EC90 for antiviral activity against HBV infected in human HepG2.2.15 cells assessed as reduction in HBsAg level; type: ADME, organism-based; conditions: in vivo
[21] = Drug concentration in Beagle dog plasma at 10 mg/kg, po measured for 12 hrs by LC-MS/MS analysis; type: ADME, organism-based, Canis lupus familiaris; conditions: read-out: Ct
[22] = biological target: T1, Cytochrome P450 2B6 (Homo sapiens, UniProt P20813); assay: Inhibition of CYP2B6 in human liver microsomes using bupropion as substrate preincubated for 30 min followed by NADPH addition measured after 12 mins by LC-MS/MS analysis; type: ADME, Microsome
T1 sequence (P20813 whole entry): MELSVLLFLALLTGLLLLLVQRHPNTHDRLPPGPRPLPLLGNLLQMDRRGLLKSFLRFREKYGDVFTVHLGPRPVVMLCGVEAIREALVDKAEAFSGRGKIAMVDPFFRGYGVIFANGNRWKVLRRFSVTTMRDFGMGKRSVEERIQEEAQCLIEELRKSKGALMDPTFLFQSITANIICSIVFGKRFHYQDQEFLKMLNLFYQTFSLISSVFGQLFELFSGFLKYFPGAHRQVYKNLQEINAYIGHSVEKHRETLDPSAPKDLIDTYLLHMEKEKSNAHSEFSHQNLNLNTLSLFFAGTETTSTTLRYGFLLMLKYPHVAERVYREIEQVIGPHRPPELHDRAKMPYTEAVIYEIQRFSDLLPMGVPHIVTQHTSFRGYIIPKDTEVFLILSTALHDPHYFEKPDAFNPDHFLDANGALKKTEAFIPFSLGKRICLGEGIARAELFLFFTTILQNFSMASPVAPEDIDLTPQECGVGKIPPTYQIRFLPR

[23] = Selectivity ratio of drug concentration in liver in CD-1 mouse at 10 mg/kg, po measured for 12 hrs to EC90 for antiviral activity against HBV infected in human HepG2.2.15 cells assessed as reduction in HBsAg level; type: ADME, organism-based; conditions: in vivo
[24] = tested on: Hepatitis B virus; assay: Antiviral activity against HBV genotype D in immuno-competent C57BL/6 mouse model of chronic HBV assessed as log10 reduction in serum HBsAg production at 1 mg/kg, po qd for 14 days measured 24 hrs post-last dose by EIA relative to control; type: functional; conditions: time 15 day
[25] = Permeability across apical to basal side in human Caco-2 cells at 5 uM incubated for 120 mins by LC-MS/MS analysis; type: ADME, cell-based; conditions: read-out: permeability
[26] = Plasma protein binding in human assessed as unbound fraction at 2 uM incubated for 6 hrs by equilibrium dialysis; type: ADME, cell-free
[27] = Ratio of drug concentration in liver to plasma of Beagle dog at 10 mg/kg, po measured for 12 hrs by LC-MS/MS analysis; type: ADME, organism-based, Canis lupus familiaris; conditions: liver (relative to plasma)
[28] = Ratio of total drug concentration in liver to plasma in CD-1 mouse at 10 mg/kg, po measured for 12 hrs by LC-MS/MS analysis; type: ADME, organism-based; conditions: liver and plasma
[29] = Ratio of drug concentration in kidney to plasma of Beagle dog at 10 mg/kg, po measured for 12 hrs by LC-MS/MS analysis; type: ADME, organism-based, Canis lupus familiaris; conditions: kidney (relative to plasma)
[30] = Plasma protein binding in mouse assessed as unbound fraction at 2 uM incubated for 6 hrs by equilibrium dialysis; type: ADME, cell-free
[31] = Permeability across basal to apical side in human Caco-2 cells at 5 uM incubated for 120 mins by LC-MS/MS analysis; type: ADME, cell-based; conditions: read-out: permeability
[32] = Ratio of total drug concentration in liver to plasma in CD-1 mouse at 10 mg/kg, po measured for 24 hrs by LC-MS/MS analysis; type: ADME, organism-based; conditions: CD-1, mouse, liver and plasma

| SMILES | Kp at 12 h [1] | concentration at 12 h [2] [ng/g] | microsomal CLint at 0.3 µM [3] [µL/min/mg] | concentration at 24 h [4] [ng/g] | fraction unbound at 6 h, 2 µM [5] | concentration at 12 h [6] [ng/g] | concentration at 12 h [7] [ng/g] | log(activity) [8] | fraction unbound at 6 h, 2 µM [9] | EC50 [10] [µM] | EC90 [10] [µM] | microsomal CLint at 0.3 µM [11] [µL/min/mg] | solubility kinetic at 24 h, 200 µM [12] [µM] | EC50 [13] [µM] | fraction unbound at 6 h, 2 µM [14] | solubility kinetic at 24 h, 200 µM [15] [µM] | CC50 [16] [µM] | microsomal CLint at 0.3 µM [17] [µL/min/mg] | AUC(0-t) at 24 h [18] [µg·h/mL] | microsomal CLint at 0.3 µM [19] [µL/min/mg] | also measured |
| --- | --- | --- | --- | --- | --- | --- | --- | --- | --- | --- | --- | --- | --- | --- | --- | --- | --- | --- | --- | --- | --- |
| COCCCOc1cc2c(nc1OC)-c1cc(=O)c(C(=O)O)cn1[C@H](C(C)C)C2 | 1.3 | 63 | 3 | 29 | 0.46 | 140 | 129 | 1 | 0.38 | 0.0013 | 0.013 | 5 | 190 (≈ 76.5 µg/mL) | 0.0078 | 0.58 | 175 (≈ 70.4 µg/mL) | > 50 | 2 | 4.77 | 3 | Ratio [20]: 4; concentration at 12 h [21]: 48.3 ng/g; IC50 [22]: 21 µM; Ratio [23]: 191; log(activity) [24]: 0.81; Papp A→B at 2 h, 5 µM [25]: 115 nm/s; fraction unbound at 6 h, 2 µM [26]: 0.55; Kp at 12 h [27]: 2.9; Kp at 12 h [28]: 6; Kp at 12 h [29]: 2.7; fraction unbound at 6 h, 2 µM [30]: 0.66; Papp B→A at 2 h, 5 µM [31]: 438 nm/s; Kp at 24 h [32]: 3 |
| COc1cc(OC(F)F)c2nc3c(n2c1)C[C@@H](C(C)(C)C)c1cc(C(=O)O)c(=O)[nH]c1-3 | 0.5 | 135 | 7 | 56.8 | 0.06 | 2910 | 1180 | 0.71 | 0.05 | 0.0022 | 0.028 | 2 | 43 (≈ 18.6 µg/mL) | 0.04 | 0.02 | 183 (≈ 79.3 µg/mL) | > 50 | 4 | 18.9 | 3 | Ratio [20]: 662; concentration at 12 h [21]: 272 ng/g; IC50 [22]: > 25 µM; Ratio [23]: 1675; log(activity) [24]: 0.34; Papp A→B at 2 h, 5 µM [25]: 44 nm/s; fraction unbound at 6 h, 2 µM [26]: 0.05; Kp at 12 h [27]: 11; Kp at 12 h [28]: 109; Kp at 12 h [29]: 4.3; fraction unbound at 6 h, 2 µM [30]: 0.02; Papp B→A at 2 h, 5 µM [31]: 545 nm/s; Kp at 24 h [32]: 184 |
| CC(C)(C)[C@@H]1Cc2c(nc3c(C(F)(F)F)cc(C4CC4)cn23)-c2[nH]c(=O)c(C(=O)O)cc21 | 0.7 | 73 | 1 | 85.6 | 0.02 | 275 | 347 | 1.07 | 0.02 | 0.0006 | 0.0061 | 4 | 39 (≈ 17.4 µg/mL) | 0.0068 | 0.02 | 154 (≈ 68.6 µg/mL) | 48 | 1 | 20.5 | 5 | Ratio [20]: 2089; concentration at 12 h [21]: 110 ng/g; IC50 [22]: > 25 µM; Ratio [23]: 12480; log(activity) [24]: 0.47; Papp A→B at 2 h, 5 µM [25]: 266 nm/s; fraction unbound at 6 h, 2 µM [26]: 0.05; Kp at 12 h [27]: 2.5; Kp at 12 h [28]: 56; Kp at 12 h [29]: 3.2; fraction unbound at 6 h, 2 µM [30]: 0.01; Papp B→A at 2 h, 5 µM [31]: 656 nm/s; Kp at 24 h [32]: 67 |
